pEC50: −log10 of the molar value. Read-outs that look alike come from different tables or passages of the source.
Key:
[1] = system: AML cell lines (HL60/VCR, OCI-AML2, THP-1); experiment: Viability of AML cell lines, MTS and Cell Titer Glo (FIGS. 2, 4, Table 2); format: cell-based, human; conditions: 24 hours
Experimental: Representative human AML cell lines (FIG. 2A; upper and lower panels) HL60/VCR and (FIG. 2B; upper and lower panels) OCI-AML2 were treated with SACLAC for 24 and 48 hours. Viability was assessed by MTS assay at 24 and 48 hours and apoptosis was assessed by flow cytometry at 48 hours. Upper panels represent % viability and lower panels indicate % apoptosis.
(§1) AML cell lines and normal samples (PBMCs and/or CD34+ cells) were treated for 24 hours with SACLAC (FIG. 4A-7 cell lines) and similar AC inhibitor SABRAC (2-bromo-N-((2S,3R)-1,3-dihydroxyoctadecan-2-yl)acetamide) (FIG. 4B-four cell lines). Viability was assessed by MTS and Cell Titer Glo viability assays. EC50 values (FIG. 4C) were graphed to visualize fold-change between AML and normal cells with treatment of each compound. […] Cells tested for SABRAC were HL60/VCR and OCI-AML2 AML cell lines and two normal PBMC control samples (PBMC1 and PBMC2). The same four cell types were tested for SACLAC, as well as the AML cell line THP-1 and two normal CD34+ cell control samples (CD34+1 and CD34+2).
(§2) Next, we tested the toxicity of SACLAC and a similar published AC inhibitor SABRAC^17 to normal hematopoietic cells to ensure that AML cells are selectively targeted by the compound (FIG. 4A). […] This degree of selectivity was unexpected but extremely important for potential clinical use. […] This remarkable increase in selectivity is a surprising discovery that greatly exceeds the predicted similarity in compound behavior that one may expect with a simple substitution of one halogen for another (Cl for Br).

[2] = system: normal samples (PBMCs and/or CD34+ cells); experiment: Viability of normal samples, MTS and Cell Titer Glo (FIG. 4, Table 2); format: cell-based; conditions: 24 hours
Experimental: as §1, §2

pEC50 ([1]; Homo sapiens, 24 h, mean of AML cell lines, read-out: EC50 AML): 6.44
SMILES: CCCCCCCCCCCCCCC[C@@H](O)[C@H](CO)NC(=O)CBr [SABRAC, 2-bromo-N-((2S,3R)-1,3-dihydroxyoctadecan-2-yl)acetamide, reference compound]
Fold Change ([1]; EC50 Normal versus EC50 AML): 1.25
pEC50 ([2]; SACLAC: PBMC1, PBMC2, CD34+1, CD34+2, SABRAC: PBMC1, PBMC2, order of samples not given, read-out: EC50, single normal samples (FIG. 4A, 4B)): 6.22
pEC50 ([2]; PBMC, 24 h, mean of normal samples (PBMCs and/or CD34+ cells), read-out: EC50 Normal): 6.35

— patent publication US11426371B2, “Compositions and methods for treating cancer” (University of Virginia Patent Foundation, priority 2017, dated 2022)
